Experimental data: ChEMBL document CHEMBL1201862, “PubChem BioAssay data set” (2004)
Activity calls are given as the source filed them.

Tests used:
[1] = target: Envelope glycoprotein gp160 (Human immunodeficiency virus 1, UniProt Q6QLK5); assay: inhibitors of HIV fusion peptide binding, primary screen, biochemical, uHTS, fluorescence dequenching (AID 1986)
[2] = target: T1, Tyrosine-protein phosphatase non-receptor type 22 (Homo sapiens, UniProt Q9Y2R2); assay: LYP1 Fluorescent Assay using OMFP substrate for In Vitro dose response studies. [Related pubchem assays (depositor defined):AID1779, AID1784, AID435024]
T1 sequence (Q9Y2R2 whole entry): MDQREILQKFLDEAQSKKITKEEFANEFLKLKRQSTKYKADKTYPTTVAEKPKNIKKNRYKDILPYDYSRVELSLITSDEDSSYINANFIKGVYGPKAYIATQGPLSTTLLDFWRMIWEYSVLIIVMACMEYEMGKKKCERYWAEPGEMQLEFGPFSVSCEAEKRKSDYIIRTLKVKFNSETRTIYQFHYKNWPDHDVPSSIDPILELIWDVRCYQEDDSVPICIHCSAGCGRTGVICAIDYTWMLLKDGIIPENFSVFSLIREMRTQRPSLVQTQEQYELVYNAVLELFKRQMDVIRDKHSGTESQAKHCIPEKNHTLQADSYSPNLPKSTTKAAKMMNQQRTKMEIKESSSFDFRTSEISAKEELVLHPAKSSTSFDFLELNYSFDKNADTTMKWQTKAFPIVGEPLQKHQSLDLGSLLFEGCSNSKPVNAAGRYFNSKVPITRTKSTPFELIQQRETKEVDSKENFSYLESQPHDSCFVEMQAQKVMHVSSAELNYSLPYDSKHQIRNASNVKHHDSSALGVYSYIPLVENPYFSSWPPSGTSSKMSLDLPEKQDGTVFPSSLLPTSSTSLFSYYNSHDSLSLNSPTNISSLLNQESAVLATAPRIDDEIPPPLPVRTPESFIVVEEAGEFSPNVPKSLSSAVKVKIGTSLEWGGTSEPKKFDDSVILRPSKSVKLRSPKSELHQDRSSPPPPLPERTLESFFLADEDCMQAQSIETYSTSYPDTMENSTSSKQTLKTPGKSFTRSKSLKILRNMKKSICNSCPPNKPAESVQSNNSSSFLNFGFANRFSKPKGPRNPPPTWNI

[3] = target: T2, RNA-binding protein pos-1 (Caenorhabditis elegans, UniProt G5EF15); assay: inhibitors of POS-1/mex-3 RNA binding, dose response, biochemical, fluorescence polarization (AID 1964);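 note: purified POS-1 fused to maltose binding protein made in E. coli; potency of compounds blocking POS-1 binding to fluorescent RNA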
T2 sequence (G5EF15 whole entry): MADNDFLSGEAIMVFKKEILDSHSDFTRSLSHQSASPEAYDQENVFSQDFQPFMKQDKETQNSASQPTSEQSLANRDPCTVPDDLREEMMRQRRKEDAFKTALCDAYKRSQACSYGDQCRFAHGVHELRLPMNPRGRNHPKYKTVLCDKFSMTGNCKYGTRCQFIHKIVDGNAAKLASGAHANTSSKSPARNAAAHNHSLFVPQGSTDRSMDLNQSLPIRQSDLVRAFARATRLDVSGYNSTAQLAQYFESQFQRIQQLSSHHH

[4] = target: T3, Tyrosine-protein phosphatase non-receptor type 7 (Homo sapiens, UniProt P35236); type: functional
T3 sequence (P35236 whole entry): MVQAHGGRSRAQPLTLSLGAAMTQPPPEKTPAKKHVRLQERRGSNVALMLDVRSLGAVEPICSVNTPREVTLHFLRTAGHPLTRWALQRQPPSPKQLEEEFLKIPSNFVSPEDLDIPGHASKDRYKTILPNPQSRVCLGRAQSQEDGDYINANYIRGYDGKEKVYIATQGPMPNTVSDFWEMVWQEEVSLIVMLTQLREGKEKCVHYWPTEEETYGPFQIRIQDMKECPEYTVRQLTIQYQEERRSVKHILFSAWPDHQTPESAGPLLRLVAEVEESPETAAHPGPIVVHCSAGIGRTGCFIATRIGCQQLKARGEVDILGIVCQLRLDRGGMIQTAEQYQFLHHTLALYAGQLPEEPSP

[5] = target: T4, Zinc finger protein mex-5 (Caenorhabditis elegans, UniProt Q9XUB2); assay: MEX-5/TCR-2 RNA interaction inhibitors, dose response, biochemical, C. elegans, fluorescence polarization (AID 1960)
T4 sequence (Q9XUB2 whole entry): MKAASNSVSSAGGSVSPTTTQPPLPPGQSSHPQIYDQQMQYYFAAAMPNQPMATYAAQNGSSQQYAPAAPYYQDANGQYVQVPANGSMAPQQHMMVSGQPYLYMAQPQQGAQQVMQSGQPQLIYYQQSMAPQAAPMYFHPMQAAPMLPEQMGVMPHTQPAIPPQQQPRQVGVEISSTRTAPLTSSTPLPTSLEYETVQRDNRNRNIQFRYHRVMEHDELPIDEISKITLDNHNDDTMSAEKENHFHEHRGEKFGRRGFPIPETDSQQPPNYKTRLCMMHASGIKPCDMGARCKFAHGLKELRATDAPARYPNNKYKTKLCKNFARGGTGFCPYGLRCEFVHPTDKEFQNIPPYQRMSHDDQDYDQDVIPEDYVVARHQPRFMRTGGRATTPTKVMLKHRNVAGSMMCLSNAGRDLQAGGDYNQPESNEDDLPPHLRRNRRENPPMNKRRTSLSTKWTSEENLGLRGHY

[6] = target: T3, Tyrosine-protein phosphatase non-receptor type 7; assay: HTS HePTP Fluorescent Assay using OMFP substrate for In Vitro dose response studies. [Related pubchem assays (depositor defined):AID1059, AID1077, AID1784, AID2068, AID2085, AID435032, AID521]; type: functional
[7] = HIV-1 Env-mediated cell fusion inhibitors, dose response, CCR5-tropic Env (AID 2279); type: functional
[8] = target: T1, Tyrosine-protein phosphatase non-receptor type 22; assay: inhibitors of LYP phosphatase, biochemical, fluorescence intensity, uHTS (AID 1779)
[9] = target: T1, Tyrosine-protein phosphatase non-receptor type 22; assay: SAR LYP1 Fluorescent Assay using pCAP substrate for In Vitro dose response studies - Set 2. [Related pubchem assays (depositor defined):AID1779, AID1784, AID2135, AID449727]; type: functional
[10] = target: Tyrosine-protein phosphatase non-receptor type 12 (Homo sapiens, UniProt Q05209); assay: SAR Selectivity Analysis of small molecule inhibitors of PEST using pCAP in a fluorescence assay. [Related pubchem assays (depositor defined):AID1779, AID1784, AID2135]; type: functional
[11] = target: T1, Tyrosine-protein phosphatase non-receptor type 22; assay: SAR LYP1 Fluorescent Assay using OMFP substrate for In Vitro dose response studies - Set 3. [Related pubchem assays (depositor defined):AID1779, AID1784, AID2140, AID2686]; type: functional
[12] = target: T3, Tyrosine-protein phosphatase non-receptor type 7; assay: HePTP (PTPN7) phosphatase inhibitor potency, SAR follow-up, biochemical, set 2 (AID 449736); type: functional
[13] = target: T1, Tyrosine-protein phosphatase non-receptor type 22; type: functional
[14] = target: T1, Tyrosine-protein phosphatase non-receptor type 22; assay: PubChem AID 2135
[15] = target: T1, Tyrosine-protein phosphatase non-receptor type 22; assay: PubChem AID 2140
[16] = target: T1, Tyrosine-protein phosphatase non-receptor type 22; assay: SAR LYP1 Fluorescent Assay using OMFP substrate for In Vitro dose response studies - Set 2. [Related pubchem assays (depositor defined):AID1779, AID1784, AID2140, AID449726, AID488869]; type: functional
[17] = target: 26S proteasome non-ATPase regulatory subunit 14 (Homo sapiens, UniProt O00487); assay: inhibition of proteasome subunit RPN11 – biochemical, fluorescence polarization, uHTS hits, confirmation (AID 602368); type: functional
[18] = target: 72 kDa type IV collagenase (Homo sapiens, UniProt P08253); assay: Dose Response validation of uHTS RPN11 inhibitor hits using a MMP-2 Fluorescence assay.; type: functional
[19] = target: Prothrombin (Bos taurus, UniProt P00735); assay: thrombin inhibition, dose response, biochemical, fluorescence polarization, uHTS hits (AID 602369); type: functional
[20] = target: T5, Kappa-type opioid receptor (Homo sapiens, UniProt P41145); assay: SAR analysis of small molecule agonists of the kappa opioid receptor via a luminescent beta-arrestin assay. [Related pubchem assays (depositor defined):AID1777, AID1786, AID1966, AID2133, AID2136, AID2348, AID2352, AID2357, AID2359, AID2370, AID2420, AID2478, AID2491, AID2492, AID2493, AID2497, AID2498, AID2500, AID449737, AID488822, AID488842]; type: functional
[21] = target: T6, Mu-type opioid receptor (Homo sapiens, UniProt P35372); assay: MOR agonists by imaging, SAR follow-up, image-based (AID 2352); type: functional
[22] = target: T7, Delta-type opioid receptor (Homo sapiens, UniProt P41143); assay: DOR agonists, SAR follow-up, image-based (AID 2370); type: functional
[23] = target: T5, Kappa-type opioid receptor; assay: KOR antagonists by imaging, SAR follow-up, image-based (AID 2348); type: functional
[24] = target: T6, Mu-type opioid receptor; assay: MOR antagonists, SAR follow-up, image-based (AID 2420); type: functional;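 note: compounds added before stimulation of receptor with agonist DAMGO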
[25] = target: T5, Kappa-type opioid receptor; assay: KOR agonist analogs, imaging readout, SAR follow-up, image-based (AID 2359); type: functional
[26] = target: T7, Delta-type opioid receptor; assay: DOR antagonists, SAR follow-up, image-based (AID 2357); type: functional
[27] = target: Exodeoxyribonuclease V (Escherichia coli (strain K12), UniProt P04993+P07648+P08394); assay: E. coli RecBCD inhibitors, dose response, counter-screen for AddAB inhibitor project, absorbance, V66 E. coli, mutant T4 phage (AID 492957); type: functional, cell-based, Escherichia coli str. K-12 substr. MG1655
[28] = Counterscreen for AddAB inhibitors: absorbance-based bacterial cell-based high throughput dose response assay for inhibitors of bacterial viability. [Related pubchem assays (depositor defined):AID435030, AID449728, AID449731, AID488942, AID488955, AID488956]; type: functional
[29] = target: T8, Mannose-6-phosphate isomerase (Homo sapiens, UniProt P34949); assay: PMI enzyme inhibitors, confirmation, biochemical, fluorescence intensity (AID 1535)
T8 sequence (P34949 whole entry): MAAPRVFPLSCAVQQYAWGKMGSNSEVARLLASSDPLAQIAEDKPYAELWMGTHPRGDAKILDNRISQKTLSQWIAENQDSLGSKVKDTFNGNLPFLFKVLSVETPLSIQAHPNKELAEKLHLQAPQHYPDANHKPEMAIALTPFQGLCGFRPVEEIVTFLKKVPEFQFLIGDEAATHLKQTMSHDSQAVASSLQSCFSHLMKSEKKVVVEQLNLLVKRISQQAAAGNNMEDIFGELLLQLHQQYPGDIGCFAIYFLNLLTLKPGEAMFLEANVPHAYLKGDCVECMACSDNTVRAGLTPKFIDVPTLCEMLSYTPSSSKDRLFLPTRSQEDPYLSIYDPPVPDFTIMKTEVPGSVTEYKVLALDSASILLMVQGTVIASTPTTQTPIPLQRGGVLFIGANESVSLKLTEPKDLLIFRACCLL

[30] = target: Phosphomannomutase 2 (Homo sapiens, UniProt O15305); assay: Counter screen SAR assay for PMM2 inhibitors via a fluorescence intensity assay. [Related pubchem assays (depositor defined):AID1545, AID1574]
[31] = target: Tumor necrosis factor (Homo sapiens, UniProt P01375); assay: TNFa-triggered NF-kB activation inhibitors, SAR follow-up, cell-based, revised (AID 2337); type: functional
[32] = target: Nucleotide-binding oligomerization domain-containing protein 1 (Homo sapiens, UniProt Q9Y239); assay: NOD1 signaling inhibitors, SAR follow-up, revised (AID 2333); type: functional
[33] = target: Nucleotide-binding oligomerization domain-containing protein 2 (Homo sapiens, UniProt Q9HC29); assay: PubChem AID 2334; type: functional
[34] = test system: HEK293; assay: cells; settings: Homo sapiens;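 note: cells exposed to compound for 14 hours overnight before viability readout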
[35] = target: T5, Kappa-type opioid receptor; assay: SAR analysis of small molecule agonists of the kappa opioid receptor via a luminescent beta-arrestin assay - Set 3. [Related pubchem assays (depositor defined):AID1777, AID1785, AID1786, AID1966, AID2133, AID2136, AID2284, AID2500]; type: functional

T5 sequence (P41145 whole entry): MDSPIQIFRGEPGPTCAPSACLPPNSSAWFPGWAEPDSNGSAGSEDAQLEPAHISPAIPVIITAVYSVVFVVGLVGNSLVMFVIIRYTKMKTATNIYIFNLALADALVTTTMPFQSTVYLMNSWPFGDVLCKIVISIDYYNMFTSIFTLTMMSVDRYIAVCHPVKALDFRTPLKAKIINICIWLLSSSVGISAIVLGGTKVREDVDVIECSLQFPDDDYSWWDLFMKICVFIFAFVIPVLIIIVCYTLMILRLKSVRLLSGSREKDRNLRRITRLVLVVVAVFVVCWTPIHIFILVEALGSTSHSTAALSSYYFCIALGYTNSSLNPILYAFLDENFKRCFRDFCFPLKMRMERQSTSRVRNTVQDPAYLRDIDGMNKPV
T7 sequence (P41143 whole entry): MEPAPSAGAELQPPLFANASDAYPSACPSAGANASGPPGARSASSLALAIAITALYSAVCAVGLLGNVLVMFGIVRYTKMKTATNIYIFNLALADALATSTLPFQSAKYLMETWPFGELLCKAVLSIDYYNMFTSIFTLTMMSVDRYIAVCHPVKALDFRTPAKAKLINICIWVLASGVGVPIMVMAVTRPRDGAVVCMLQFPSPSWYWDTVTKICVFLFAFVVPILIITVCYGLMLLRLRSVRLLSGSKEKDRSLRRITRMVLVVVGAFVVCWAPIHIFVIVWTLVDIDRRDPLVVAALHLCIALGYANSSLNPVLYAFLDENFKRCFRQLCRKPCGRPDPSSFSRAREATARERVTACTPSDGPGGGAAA
T6 sequence (P35372 whole entry): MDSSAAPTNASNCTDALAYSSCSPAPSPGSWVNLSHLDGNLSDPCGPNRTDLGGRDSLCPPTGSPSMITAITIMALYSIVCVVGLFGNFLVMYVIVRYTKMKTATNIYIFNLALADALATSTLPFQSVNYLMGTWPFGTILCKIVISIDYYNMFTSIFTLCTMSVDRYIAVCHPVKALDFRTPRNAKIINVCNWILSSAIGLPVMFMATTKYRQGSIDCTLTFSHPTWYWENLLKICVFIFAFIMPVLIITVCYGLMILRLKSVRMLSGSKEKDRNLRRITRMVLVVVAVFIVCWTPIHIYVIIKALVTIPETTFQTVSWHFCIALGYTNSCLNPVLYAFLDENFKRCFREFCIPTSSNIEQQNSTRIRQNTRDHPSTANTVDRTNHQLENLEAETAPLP
Sequence of Exodeoxyribonuclease V (P04993 whole entry): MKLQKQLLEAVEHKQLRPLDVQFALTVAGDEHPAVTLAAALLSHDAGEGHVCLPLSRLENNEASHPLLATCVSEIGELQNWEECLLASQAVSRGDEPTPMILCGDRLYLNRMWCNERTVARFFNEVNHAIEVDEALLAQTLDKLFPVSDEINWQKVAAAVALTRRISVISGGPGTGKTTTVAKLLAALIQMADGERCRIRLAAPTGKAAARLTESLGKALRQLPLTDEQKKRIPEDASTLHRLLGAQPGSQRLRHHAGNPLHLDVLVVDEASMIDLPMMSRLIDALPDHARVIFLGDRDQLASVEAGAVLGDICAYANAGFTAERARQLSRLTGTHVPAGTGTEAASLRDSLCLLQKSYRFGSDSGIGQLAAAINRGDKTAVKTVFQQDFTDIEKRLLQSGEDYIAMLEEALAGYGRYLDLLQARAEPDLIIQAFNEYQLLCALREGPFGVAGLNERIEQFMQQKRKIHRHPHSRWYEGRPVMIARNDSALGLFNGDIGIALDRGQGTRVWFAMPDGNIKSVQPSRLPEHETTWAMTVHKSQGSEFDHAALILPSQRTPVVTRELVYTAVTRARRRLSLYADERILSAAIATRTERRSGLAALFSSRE
Sequence of Exodeoxyribonuclease V (P07648 whole entry): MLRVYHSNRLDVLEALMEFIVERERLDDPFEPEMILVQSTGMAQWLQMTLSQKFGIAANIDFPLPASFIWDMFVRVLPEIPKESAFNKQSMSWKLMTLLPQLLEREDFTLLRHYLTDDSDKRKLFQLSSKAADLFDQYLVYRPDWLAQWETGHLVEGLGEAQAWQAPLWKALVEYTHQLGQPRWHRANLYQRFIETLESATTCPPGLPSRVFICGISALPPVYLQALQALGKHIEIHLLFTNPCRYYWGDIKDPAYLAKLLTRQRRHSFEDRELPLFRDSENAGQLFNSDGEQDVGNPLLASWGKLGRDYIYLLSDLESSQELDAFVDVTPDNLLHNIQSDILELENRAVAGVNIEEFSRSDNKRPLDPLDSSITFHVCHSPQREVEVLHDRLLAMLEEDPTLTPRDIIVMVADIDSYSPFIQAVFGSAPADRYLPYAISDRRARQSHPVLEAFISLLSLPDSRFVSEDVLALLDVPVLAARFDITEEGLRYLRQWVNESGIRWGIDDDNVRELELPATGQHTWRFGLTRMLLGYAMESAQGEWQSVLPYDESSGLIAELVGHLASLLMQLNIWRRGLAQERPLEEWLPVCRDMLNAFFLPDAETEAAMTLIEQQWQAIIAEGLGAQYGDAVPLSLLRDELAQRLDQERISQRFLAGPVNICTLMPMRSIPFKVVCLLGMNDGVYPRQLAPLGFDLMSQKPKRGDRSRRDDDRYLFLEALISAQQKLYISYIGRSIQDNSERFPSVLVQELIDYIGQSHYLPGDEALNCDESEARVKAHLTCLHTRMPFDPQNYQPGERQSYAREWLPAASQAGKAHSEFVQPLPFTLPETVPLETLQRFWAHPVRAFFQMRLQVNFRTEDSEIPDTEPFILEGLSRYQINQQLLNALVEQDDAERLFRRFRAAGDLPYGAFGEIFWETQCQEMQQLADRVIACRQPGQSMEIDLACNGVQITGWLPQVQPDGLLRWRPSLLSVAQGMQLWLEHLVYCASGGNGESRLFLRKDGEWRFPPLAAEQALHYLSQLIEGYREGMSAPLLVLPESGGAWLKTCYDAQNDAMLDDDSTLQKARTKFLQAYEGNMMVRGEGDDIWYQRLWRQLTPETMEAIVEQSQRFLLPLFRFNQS
Sequence of Exodeoxyribonuclease V (P08394 whole entry): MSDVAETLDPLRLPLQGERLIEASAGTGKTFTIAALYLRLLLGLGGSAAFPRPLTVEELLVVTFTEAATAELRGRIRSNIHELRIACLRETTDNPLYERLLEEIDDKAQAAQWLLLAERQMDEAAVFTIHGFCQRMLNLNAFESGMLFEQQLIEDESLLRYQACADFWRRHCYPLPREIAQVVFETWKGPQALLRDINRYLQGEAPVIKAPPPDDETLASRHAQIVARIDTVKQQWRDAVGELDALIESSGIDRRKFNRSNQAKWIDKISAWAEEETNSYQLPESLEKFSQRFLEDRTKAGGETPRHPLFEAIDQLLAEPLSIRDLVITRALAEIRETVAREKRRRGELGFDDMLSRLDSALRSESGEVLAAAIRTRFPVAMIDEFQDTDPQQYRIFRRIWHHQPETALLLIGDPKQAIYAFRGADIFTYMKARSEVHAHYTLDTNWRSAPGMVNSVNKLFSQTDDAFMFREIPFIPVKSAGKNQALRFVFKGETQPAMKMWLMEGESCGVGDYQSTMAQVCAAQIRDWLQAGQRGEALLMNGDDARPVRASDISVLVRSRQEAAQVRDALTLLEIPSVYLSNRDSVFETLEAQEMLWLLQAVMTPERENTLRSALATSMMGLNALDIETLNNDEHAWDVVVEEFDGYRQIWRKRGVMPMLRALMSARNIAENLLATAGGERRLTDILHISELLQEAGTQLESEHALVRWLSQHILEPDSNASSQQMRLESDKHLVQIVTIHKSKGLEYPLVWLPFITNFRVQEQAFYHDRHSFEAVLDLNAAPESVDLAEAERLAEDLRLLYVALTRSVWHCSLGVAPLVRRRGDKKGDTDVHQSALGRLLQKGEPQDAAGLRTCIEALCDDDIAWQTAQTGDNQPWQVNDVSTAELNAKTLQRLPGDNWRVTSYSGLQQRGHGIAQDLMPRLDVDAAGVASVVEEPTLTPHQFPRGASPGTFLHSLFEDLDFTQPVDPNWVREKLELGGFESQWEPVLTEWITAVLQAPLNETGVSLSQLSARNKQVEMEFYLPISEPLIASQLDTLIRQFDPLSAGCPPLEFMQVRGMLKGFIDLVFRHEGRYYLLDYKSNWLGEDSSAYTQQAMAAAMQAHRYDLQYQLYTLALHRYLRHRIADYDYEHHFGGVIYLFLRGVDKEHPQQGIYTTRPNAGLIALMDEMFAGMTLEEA
Sequence of Envelope glycoprotein gp160 (Q6QLK5 whole entry, the tested form may be a part): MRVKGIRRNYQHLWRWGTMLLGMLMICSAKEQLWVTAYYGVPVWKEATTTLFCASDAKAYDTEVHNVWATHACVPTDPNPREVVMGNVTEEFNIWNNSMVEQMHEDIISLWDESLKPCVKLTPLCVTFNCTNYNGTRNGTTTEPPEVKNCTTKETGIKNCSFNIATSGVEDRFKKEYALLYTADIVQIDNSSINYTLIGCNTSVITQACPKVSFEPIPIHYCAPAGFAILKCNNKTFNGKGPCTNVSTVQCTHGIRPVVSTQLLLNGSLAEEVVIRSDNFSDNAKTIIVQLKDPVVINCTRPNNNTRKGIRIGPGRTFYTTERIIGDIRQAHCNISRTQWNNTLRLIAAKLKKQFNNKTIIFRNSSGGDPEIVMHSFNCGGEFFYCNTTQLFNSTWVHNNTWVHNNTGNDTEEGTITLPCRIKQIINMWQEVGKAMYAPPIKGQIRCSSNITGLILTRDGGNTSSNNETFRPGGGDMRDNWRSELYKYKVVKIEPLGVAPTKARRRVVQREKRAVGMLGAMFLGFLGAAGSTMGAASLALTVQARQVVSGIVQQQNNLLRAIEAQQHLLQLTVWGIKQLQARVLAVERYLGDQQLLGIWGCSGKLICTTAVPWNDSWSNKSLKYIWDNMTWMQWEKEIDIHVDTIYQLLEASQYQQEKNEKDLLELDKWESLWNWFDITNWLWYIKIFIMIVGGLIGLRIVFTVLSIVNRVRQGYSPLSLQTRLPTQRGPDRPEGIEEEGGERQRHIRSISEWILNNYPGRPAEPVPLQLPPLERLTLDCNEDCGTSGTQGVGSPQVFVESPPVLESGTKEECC

O=C(O)CCCN1C(=O)/C(=C/c2ccc(-c3nc4ccccc4s3)o2)SC1=S
IC50 [1]: 11.7 µM (active) | IC50 [2]: 6.14 µM (active) | EC50 [3]: 3.39 µM (active) | IC50 [4]: 11.5 µM (active) | EC50 [5]: 20.4 µM (active) | IC50 [6]: 24.6 µM (active) | IC50 [7]: 4.43 µM (active) | IC50 [8]: 7.71 µM (active) | IC50 [9]: 3.1 µM (active) | IC50 [10]: 1.63 µM (active) | IC50 [11]: 11.2 µM (active) | IC50 [12]: 0.608 µM (active) | IC50 [13]: 4.77 µM (active) | IC50 [14]: 3.69 µM (active) | IC50 [15]: 16 µM (active) | IC50 [16]: 3.92 µM (active) | IC50 [17]: 5.26 µM (active) | IC50 [18]: > 100 µM (inactive) | IC50 [19]: 34.5 µM (active)

Cc1ccc2[nH]c(=O)c(CN(C)C(=O)c3ccccn3)cc2c1
EC50 [20]: > 10 µM (inactive) | EC50 [21]: > 32 µM (inactive) | EC50 [22]: > 32 µM (inactive) | IC50 [23]: > 32 µM (inactive) | IC50 [24]: > 32 µM (inactive) | EC50 [25]: > 32 µM (inactive) | IC50 [26]: > 32 µM (inactive)

Cc1cccnc1NC(=O)c1ccc([N+](=O)[O-])o1
IC50 [27]: > 119 µM (inactive) | IC50 [28]: 29.9 µM (inactive)

CCOc1ccc(-c2nnc(S)o2)cc1
IC50 [29]: > 50 µM (inactive) | IC50 [30]: > 100 µM (inactive)

O=C(Nc1nc2ccccc2n1Cc1ccccc1Cl)C1CCCCC1
IC50 [31]: > 20 µM (inactive) | IC50 [32]: > 20 µM (inactive) | IC50 [33]: > 20 µM (inactive) | IC50 [34]: > 20 µM (inactive)

c1ccc(CSc2nnc(-c3ccccn3)n2Cc2ccccc2)cc1
EC50 [35]: > 20 µM (inactive)
